In article PMC3639647, “Cloning, Expression, and Purification of Nucleoside Diphosphate Kinase from Acinetobacter baumannii” (Enzyme Research, 2013):

Biological target: T1, Ndk (nucleoside diphosphate kinase) (Acinetobacter baumannii, UniProt B0VKS3)
T1 construct: E. coli BL21(DE3), Ni-NTA
T1 sequence (B0VKS3 1-143): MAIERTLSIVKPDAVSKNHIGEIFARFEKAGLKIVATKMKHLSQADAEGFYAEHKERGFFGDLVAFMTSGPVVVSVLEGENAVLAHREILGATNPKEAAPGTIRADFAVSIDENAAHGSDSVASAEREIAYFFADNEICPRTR
Experiment: intrinsic tryptophan/tyrosine fluorescence quenching titration (excitation […] nm)
Format: binding
Conditions: pH 7 (neutral), 25 °C, 17 µM protein, ATP 20-100 µM

Which “intrinsic tryptophan/tyrosine fluorescence quenching titration (excitation 280 n)” value does the source give for `Nc1ncnc2c1ncn2[C@@H]1O[C@H](COP(=O)(O)OP(=O)(O)OP(=O)(O)O)[C@@H](O)[C@H]1O` [ATP] here?
Its value is “Binding of the substrate ATP with the enzyme was confirmed by the quenching of fluorescence”.
